Source: the kinase profiling compilation of Christmann-Franck et al. (2016)

Experiments:
Experiment in all cases: radiometric filter-binding kinase assay, Kinase HotSpot
Conditions in all cases: compound 0.5 µM; ATP 10 µM
DAPK1 (human) = DAPK1 (human) (UniProt P53355)
PIM3 (human) = PIM3 (human) (UniProt Q86V86)
IKBKB (human) = IKBKB (human) (UniProt O14920)
CDK1 CCNA2 (human) = CDK1 CCNA2 (human) (UniProt P06493+P20248)
CAMK4 (human) = CAMK4 (human) (UniProt Q16566)
IKBKE (human) = IKBKE (human) (UniProt Q14164)
PAK2 (human) = PAK2 (human) (UniProt Q13177)
TEC (human) = TEC (human) (UniProt P42680)
MAPK12 (human) = MAPK12 (human) (UniProt P53778)
CSNK2A1 (human) = CSNK2A1 (human) (UniProt P68400)
PAK4 (human) = PAK4 (human) (UniProt O96013)
CSK (human) = CSK (human) (UniProt P41240)
BTK (human) = BTK (human) (UniProt Q06187)
NEK2 (human) = NEK2 (human) (UniProt P51955)
FES (human) = FES (human) (UniProt P07332)
RAF1 (human) = RAF1 (human) (UniProt P04049)
STK3 (human) = STK3 (human) (UniProt Q13188)
FLT1 (human) = FLT1 (human) (UniProt P17948)
SGK3 (human) = SGK3 (human) (UniProt Q96BR1)
WEE1 (human) = WEE1 (human) (UniProt P30291)
EPHB1 (human) = EPHB1 (human) (UniProt P54762)
CAMK1G (human) = CAMK1G (human) (UniProt Q96NX5)
ZAP70 (human) = ZAP70 (human) (UniProt P43403)
RET (human) = RET (human) (UniProt P07949)
MAPK14 (human) = MAPK14 (human) (UniProt Q16539)
KDR (human) = KDR (human) (UniProt P35968)
PAK7 (human) = PAK7 (human) (UniProt Q9P286)
MAPK1 (human) = MAPK1 (human) (UniProt P28482)
NTRK2 (human) = NTRK2 (human) (UniProt Q16620)
SYK (human) = SYK (human) (UniProt P43405)
HIPK4 (human) = HIPK4 (human) (UniProt Q8NE63)
ACVR1B (human) = ACVR1B (human) (UniProt P36896)
PRKCB2 (human) = PRKCB2 (human) (UniProt P05771)
AURKA (human) = AURKA (human) (UniProt O14965)
TEK (human) = TEK (human) (UniProt Q02763)
NTRK3 (human) = NTRK3 (human) (UniProt Q16288)
GRK4 (human) = GRK4 (human) (UniProt P32298)
IRAK4 (human) = IRAK4 (human) (UniProt Q9NWZ3)
RPS6KA3 KD1 KD2 (human) = RPS6KA3 KD1 KD2 (human) (UniProt P51812)
PRKCI (human) = PRKCI (human) (UniProt P41743)
MAP4K5 (human) = MAP4K5 (human) (UniProt Q9Y4K4)
ULK1 (human) = ULK1 (human) (UniProt O75385)
Sequence of ULK1 (human) (O75385 whole entry, looked up): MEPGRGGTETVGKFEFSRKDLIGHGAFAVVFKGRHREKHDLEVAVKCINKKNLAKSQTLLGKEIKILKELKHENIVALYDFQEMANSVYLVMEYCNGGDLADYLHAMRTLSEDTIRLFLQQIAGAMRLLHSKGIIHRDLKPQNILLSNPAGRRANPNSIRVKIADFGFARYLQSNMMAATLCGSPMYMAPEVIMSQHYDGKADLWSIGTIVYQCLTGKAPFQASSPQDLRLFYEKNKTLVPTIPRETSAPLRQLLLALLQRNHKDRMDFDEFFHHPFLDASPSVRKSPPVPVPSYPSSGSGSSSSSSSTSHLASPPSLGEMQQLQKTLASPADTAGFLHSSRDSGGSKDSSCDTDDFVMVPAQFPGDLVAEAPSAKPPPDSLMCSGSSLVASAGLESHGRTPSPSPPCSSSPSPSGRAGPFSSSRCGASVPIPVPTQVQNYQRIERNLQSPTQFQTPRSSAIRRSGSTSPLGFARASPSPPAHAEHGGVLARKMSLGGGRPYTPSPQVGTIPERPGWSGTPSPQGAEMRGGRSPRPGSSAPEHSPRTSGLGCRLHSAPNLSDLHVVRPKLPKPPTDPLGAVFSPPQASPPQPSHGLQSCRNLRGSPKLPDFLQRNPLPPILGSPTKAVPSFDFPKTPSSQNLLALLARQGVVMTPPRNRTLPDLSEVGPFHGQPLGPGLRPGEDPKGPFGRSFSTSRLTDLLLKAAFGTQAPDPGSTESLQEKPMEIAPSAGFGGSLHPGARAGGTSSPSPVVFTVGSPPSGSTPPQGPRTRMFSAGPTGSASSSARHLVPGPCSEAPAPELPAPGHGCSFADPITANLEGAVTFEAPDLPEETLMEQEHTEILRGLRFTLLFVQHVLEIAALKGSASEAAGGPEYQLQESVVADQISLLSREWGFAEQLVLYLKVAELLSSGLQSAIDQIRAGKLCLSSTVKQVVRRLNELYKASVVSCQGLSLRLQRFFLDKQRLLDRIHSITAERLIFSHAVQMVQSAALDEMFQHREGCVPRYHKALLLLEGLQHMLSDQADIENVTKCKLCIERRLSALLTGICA

Sequence of KDR (human) (P35968 whole entry, looked up): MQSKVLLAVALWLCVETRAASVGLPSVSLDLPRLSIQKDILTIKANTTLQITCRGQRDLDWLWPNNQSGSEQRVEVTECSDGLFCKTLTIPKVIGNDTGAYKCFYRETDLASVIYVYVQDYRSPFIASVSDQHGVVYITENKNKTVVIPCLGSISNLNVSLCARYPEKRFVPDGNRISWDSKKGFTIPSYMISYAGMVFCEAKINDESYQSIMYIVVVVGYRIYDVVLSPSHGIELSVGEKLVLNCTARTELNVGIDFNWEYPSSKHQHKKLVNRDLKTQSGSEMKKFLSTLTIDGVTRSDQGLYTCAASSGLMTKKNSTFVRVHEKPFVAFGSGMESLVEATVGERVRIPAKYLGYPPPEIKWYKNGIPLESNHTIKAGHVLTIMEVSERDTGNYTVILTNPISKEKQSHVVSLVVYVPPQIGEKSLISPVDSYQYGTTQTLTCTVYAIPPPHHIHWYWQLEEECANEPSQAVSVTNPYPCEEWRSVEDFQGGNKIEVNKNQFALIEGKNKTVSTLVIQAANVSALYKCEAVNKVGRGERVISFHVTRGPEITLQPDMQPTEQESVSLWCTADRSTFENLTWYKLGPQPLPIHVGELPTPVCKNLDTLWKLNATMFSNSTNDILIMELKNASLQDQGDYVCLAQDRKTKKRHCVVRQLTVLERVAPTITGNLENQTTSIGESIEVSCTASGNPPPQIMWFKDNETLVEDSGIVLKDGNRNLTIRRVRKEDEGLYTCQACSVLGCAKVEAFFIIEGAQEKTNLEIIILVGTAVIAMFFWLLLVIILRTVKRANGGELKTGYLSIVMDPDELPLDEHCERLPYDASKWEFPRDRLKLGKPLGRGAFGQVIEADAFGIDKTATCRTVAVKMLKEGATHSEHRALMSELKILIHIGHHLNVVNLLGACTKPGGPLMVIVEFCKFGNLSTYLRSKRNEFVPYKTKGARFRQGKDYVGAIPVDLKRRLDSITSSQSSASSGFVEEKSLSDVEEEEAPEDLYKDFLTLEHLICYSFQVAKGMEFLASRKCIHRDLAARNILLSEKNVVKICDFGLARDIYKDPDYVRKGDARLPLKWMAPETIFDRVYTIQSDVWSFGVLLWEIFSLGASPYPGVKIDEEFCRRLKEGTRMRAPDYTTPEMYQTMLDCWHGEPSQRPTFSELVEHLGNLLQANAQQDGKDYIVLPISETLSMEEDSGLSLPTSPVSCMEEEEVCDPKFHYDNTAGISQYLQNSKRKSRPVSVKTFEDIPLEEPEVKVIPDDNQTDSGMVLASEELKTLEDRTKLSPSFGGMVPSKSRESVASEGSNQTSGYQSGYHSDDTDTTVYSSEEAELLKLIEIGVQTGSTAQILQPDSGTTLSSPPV
Sequence of BTK (human) (Q06187 whole entry, looked up): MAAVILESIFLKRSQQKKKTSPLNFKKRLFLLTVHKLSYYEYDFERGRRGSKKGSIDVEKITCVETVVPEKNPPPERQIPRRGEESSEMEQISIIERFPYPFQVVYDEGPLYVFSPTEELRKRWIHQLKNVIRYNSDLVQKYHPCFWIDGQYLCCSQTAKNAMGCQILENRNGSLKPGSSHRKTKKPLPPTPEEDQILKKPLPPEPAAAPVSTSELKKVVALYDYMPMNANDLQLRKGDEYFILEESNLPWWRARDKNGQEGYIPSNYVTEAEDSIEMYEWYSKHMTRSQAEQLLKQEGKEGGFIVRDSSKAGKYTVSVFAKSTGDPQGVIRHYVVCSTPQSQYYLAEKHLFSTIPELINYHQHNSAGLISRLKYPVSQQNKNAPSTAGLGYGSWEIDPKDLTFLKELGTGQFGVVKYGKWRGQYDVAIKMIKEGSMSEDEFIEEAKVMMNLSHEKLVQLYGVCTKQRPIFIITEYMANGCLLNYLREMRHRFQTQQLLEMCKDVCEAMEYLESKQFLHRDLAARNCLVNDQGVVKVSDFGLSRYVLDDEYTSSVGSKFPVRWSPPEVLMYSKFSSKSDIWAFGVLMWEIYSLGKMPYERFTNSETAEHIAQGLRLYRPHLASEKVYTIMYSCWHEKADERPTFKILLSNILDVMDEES
Sequence of NTRK2 (human) (Q16620 whole entry, looked up): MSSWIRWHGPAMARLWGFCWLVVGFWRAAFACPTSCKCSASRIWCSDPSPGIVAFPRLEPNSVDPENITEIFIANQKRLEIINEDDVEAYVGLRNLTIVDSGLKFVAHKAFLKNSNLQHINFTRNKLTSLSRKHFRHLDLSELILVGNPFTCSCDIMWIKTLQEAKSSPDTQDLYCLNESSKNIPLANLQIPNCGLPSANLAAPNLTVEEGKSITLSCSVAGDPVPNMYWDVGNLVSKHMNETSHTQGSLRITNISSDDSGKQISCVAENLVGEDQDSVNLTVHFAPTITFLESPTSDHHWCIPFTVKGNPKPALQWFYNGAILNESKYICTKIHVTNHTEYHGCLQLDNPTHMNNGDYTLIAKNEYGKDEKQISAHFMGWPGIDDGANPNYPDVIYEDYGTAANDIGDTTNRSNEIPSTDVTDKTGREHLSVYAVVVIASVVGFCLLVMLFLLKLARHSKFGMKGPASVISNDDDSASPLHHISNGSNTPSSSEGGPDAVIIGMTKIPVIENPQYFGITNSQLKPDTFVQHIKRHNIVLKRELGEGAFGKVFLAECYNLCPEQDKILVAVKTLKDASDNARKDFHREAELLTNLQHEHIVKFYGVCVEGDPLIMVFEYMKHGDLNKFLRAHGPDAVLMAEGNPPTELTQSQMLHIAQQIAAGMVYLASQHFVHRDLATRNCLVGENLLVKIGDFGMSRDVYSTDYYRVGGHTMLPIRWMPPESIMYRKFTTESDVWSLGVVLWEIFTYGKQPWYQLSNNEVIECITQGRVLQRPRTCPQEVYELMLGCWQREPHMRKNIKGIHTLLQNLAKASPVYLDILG
Sequence of SGK3 (human) (Q96BR1 whole entry, looked up): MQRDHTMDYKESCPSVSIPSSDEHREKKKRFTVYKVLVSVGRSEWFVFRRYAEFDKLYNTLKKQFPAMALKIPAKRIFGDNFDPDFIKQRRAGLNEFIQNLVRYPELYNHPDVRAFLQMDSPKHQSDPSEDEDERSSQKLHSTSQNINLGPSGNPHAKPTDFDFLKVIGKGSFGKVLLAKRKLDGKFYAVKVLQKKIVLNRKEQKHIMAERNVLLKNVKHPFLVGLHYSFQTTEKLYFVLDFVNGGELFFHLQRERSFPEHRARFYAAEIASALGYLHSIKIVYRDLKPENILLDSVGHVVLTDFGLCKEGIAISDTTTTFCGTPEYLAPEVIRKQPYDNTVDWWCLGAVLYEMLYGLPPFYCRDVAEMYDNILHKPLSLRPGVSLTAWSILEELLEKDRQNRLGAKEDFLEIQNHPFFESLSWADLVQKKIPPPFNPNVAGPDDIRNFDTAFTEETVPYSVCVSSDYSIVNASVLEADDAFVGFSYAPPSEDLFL
Sequence of GRK4 (human) (P32298 whole entry, looked up): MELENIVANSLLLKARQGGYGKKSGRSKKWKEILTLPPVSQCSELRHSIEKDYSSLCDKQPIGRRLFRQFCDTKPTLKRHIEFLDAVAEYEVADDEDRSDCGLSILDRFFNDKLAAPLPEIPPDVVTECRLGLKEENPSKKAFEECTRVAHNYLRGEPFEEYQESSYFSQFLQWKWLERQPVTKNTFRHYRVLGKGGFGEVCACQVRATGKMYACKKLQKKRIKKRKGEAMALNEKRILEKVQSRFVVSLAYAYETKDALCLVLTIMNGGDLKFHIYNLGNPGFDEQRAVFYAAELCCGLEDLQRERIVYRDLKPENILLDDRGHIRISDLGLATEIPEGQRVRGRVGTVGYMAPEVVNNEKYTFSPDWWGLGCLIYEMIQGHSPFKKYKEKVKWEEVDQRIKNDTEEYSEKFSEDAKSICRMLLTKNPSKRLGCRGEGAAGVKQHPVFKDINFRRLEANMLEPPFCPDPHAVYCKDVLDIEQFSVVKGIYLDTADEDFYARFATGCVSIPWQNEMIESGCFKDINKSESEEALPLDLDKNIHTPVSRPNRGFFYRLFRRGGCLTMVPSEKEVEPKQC

SMILES: O=C(c1cc2cc(O)ccc2[nH]1)c1cc2cc(O)ccc2[nH]1
- residual activity (DAPK1 (human)): 101%
- residual activity (PIM3 (human)): 98.9%
- residual activity (IKBKB (human)): 91.3%
- residual activity (CDK1 CCNA2 (human)): 88.2%
- residual activity (CAMK4 (human)): 96.5%
- residual activity (IKBKE (human)): 81.6%
- residual activity (PAK2 (human)): 97%
- residual activity (TEC (human)): 105%
- residual activity (MAPK12 (human)): 97.9%
- residual activity (CSNK2A1 (human)): 88.7%
- residual activity (PAK4 (human)): 111%
- residual activity (CSK (human)): 106%
- residual activity (BTK (human)): 86.8%
- residual activity (NEK2 (human)): 101%
- residual activity (FES (human)): 95.3%
- residual activity (RAF1 (human)): 104%
- residual activity (STK3 (human)): 41.4%
- residual activity (FLT1 (human)): 81.3%
- residual activity (SGK3 (human)): 113%
- residual activity (WEE1 (human)): 90.6%
- residual activity (EPHB1 (human)): 97%
- residual activity (CAMK1G (human)): 101%
- residual activity (ZAP70 (human)): 101%
- residual activity (RET (human)): 8.98%
- residual activity (MAPK14 (human)): 103%
- residual activity (KDR (human)): 69.9%
- residual activity (PAK7 (human)): 85.3%
- residual activity (MAPK1 (human)): 113%
- residual activity (NTRK2 (human)): 37%
- residual activity (SYK (human)): 72%
- residual activity (HIPK4 (human)): 99.8%
- residual activity (ACVR1B (human)): 98.9%
- residual activity (PRKCB2 (human)): 98.9%
- residual activity (AURKA (human)): 71.6%
- residual activity (TEK (human)): 104%
- residual activity (NTRK3 (human)): 13.4%
- residual activity (GRK4 (human)): 103%
- residual activity (IRAK4 (human)): 85.9%
- residual activity (RPS6KA3 KD1 KD2 (human)): 37.7%
- residual activity (PRKCI (human)): 98.4%
- residual activity (MAP4K5 (human)): 28.7%
- residual activity (ULK1 (human)): 60.1%

SMILES: COc1ccc(S(=O)(=O)N(CCO)c2ccccc2CN(C)C/C=C/c2ccc(Cl)cc2)cc1
- residual activity (DAPK1 (human)): 120%
- residual activity (PIM3 (human)): 105%
- residual activity (IKBKB (human)): 98.1%
- residual activity (CDK1 CCNA2 (human)): 96.5%
- residual activity (CAMK4 (human)): 97.5%
- residual activity (IKBKE (human)): 93.7%
- residual activity (PAK2 (human)): 101%
- residual activity (TEC (human)): 101%
- residual activity (MAPK12 (human)): 98.9%
- residual activity (CSNK2A1 (human)): 99.5%
- residual activity (PAK4 (human)): 101%
- residual activity (CSK (human)): 95.6%
- residual activity (BTK (human)): 96.4%
- residual activity (NEK2 (human)): 86.6%
- residual activity (FES (human)): 96.3%
- residual activity (RAF1 (human)): 93.7%
- residual activity (STK3 (human)): 101%
- residual activity (FLT1 (human)): 94.7%
- residual activity (SGK3 (human)): 106%
- residual activity (WEE1 (human)): 96%
- residual activity (EPHB1 (human)): 93.3%
- residual activity (CAMK1G (human)): 101%
- residual activity (ZAP70 (human)): 84.7%
- residual activity (RET (human)): 103%
- residual activity (MAPK14 (human)): 95.1%
- residual activity (KDR (human)): 101%
- residual activity (PAK7 (human)): 107%
- residual activity (MAPK1 (human)): 97%
- residual activity (NTRK2 (human)): 104%
- residual activity (SYK (human)): 101%
- residual activity (HIPK4 (human)): 101%
- residual activity (ACVR1B (human)): 93.2%
- residual activity (PRKCB2 (human)): 102%
- residual activity (AURKA (human)): 97.5%
- residual activity (TEK (human)): 105%
- residual activity (NTRK3 (human)): 95.3%
- residual activity (GRK4 (human)): 94%
- residual activity (IRAK4 (human)): 97.2%
- residual activity (RPS6KA3 KD1 KD2 (human)): 98%
- residual activity (PRKCI (human)): 97.5%
- residual activity (MAP4K5 (human)): 99.7%
- residual activity (ULK1 (human)): 99.7%
